Legend:
Type in all cases: in vivo
[1] = test system: pigweed (Amaranthus retroflexus); test: Test C pre-/postemergence plant response; conditions: Preemergence
Excerpt: (§1) Seeds of plant species selected from annual bluegrass (Poa annua), blackgrass (Alopecurus myosuroides), canola (Brassica rapa), downy bromegrass (Bromus tectorum), green foxtail (Setaria viridis), Italian ryegrass (Lolium multiflorum), canarygrass (Phalaris minor), pigweed (Amaranthus retroflexus), spring barley (Hordeum vulgare), spring wheat (Triticum aestivum), wild mustard (Sinapis arvensis), wild oat (Avena fatua), windgrass (Apera spica-venti), winter barley (Hordeum vulgare), and winter wheat (Triticum aestivum) were planted and treated preemergence with test chemicals formulated in a non-phytotoxic solvent mixture which included a surfactant. At the same time, plants selected from these crop and weed species were treated with postemergence applications of some of the test chemicals formulated in the same manner. Plants ranged in height from 2 to 18 cm (1- to 4-leaf stage) for postemergence treatments.
(§2) Treated plants and controls were maintained in a controlled growth environment for 15 to 25 days after which time all species were compared to controls and visually evaluated. Plant response ratings, summarized in Table C, are based on a scale of 0 to 100 where 0 is no effect and 100 is complete control. A dash (-) response means no test result.

[2] = test system: annual bluegrass (Poa annua); test: Test C pre-/postemergence plant response; conditions: Preemergence
Excerpt: as §1, §2

[3] = test system: canarygrass (Phalaris minor); test: Test C pre-/postemergence plant response; conditions: Preemergence
Excerpt: as §1, §2

[4] = test system: spring wheat (Triticum aestivum); test: Test C pre-/postemergence plant response; conditions: Preemergence
Excerpt: as §1, §2

[5] = test system: green foxtail (Setaria viridis); test: Test C pre-/postemergence plant response; conditions: Preemergence
Excerpt: as §1, §2

[6] = test system: spring barley (Hordeum vulgare); test: Test C pre-/postemergence plant response; conditions: Preemergence
Excerpt: as §1, §2

wild oat (Avena fatua) = test: Test C pre-/postemergence plant response; conditions: Preemergence
Excerpt: as §1, §2

[7] = test system: blackgrass (Alopecurus myosuroides); test: Test C pre-/postemergence plant response; conditions: Preemergence
Excerpt: as §1, §2

[8] = test system: winter wheat (Triticum aestivum); test: Test C pre-/postemergence plant response; conditions: Preemergence
Excerpt: as §1, §2

[9] = test system: wild mustard (Sinapis arvensis); test: Test C pre-/postemergence plant response; conditions: Preemergence
Excerpt: as §1, §2

[10] = test system: downy bromegrass (Bromus tectorum); test: Test C pre-/postemergence plant response; conditions: Preemergence
Excerpt: as §1, §2

[11] = test system: winter barley (Hordeum vulgare); test: Test C pre-/postemergence plant response; conditions: Preemergence
Excerpt: as §1, §2

[12] = test system: Italian ryegrass (Lolium multiflorum); test: Test C pre-/postemergence plant response; conditions: Preemergence
Excerpt: as §1, §2

[13] = test system: windgrass (Apera spica-venti); test: Test C pre-/postemergence plant response; conditions: Preemergence
Excerpt: as §1, §2

[14] = test system: pigweed (Amaranthus retroflexus); test: Test A pre-/postemergence plant response
Summary of the method: (§3)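 Ratings are visual, 0–100, where 100 means complete control and 0 no effect, taken roughly 10 days after treatment by comparison with untreated controls. Formulation: non-phytotoxic solvent mixture with surfactant.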

[15] = test system: wheat (Triticum aestivum); test: Test A pre-/postemergence plant response
Summary of the method: as §3

[16] = 8 g ai/ha, scale 0 to 100 (0 no effect, 100 complete control)
[17] = 16 g ai/ha, scale 0 to 100 (0 no effect, 100 complete control)
[18] = 31 g ai/ha, scale 0 to 100 (0 no effect, 100 complete control)
[19] = 62 g ai/ha, scale 0 to 100, 0 no effect, 100 complete control
[20] = Postemergence, 31 g ai/ha, 0 to 100 scale, 0 no effect, 100 complete control
[21] = Postemergence, 125 g ai/ha, 0 to 100 scale, 0 no effect, 100 complete control
[22] = Preemergence, 125 g ai/ha, 0 to 100 scale (0 no effect, 100 complete control)
[23] = Preemergence, 31 g ai/ha, 0 to 100 scale, 0 is no effect, 100 is complete control

For `Cc1cc(-c2ccc(Cl)cc2)nn1-c1c(OC(=O)c2cccc(Cl)c2)cnn(C)c1=O` [Compound 32], the “Plant response rating, Pigweed” value [1, 16] was 0, the “Plant response rating, Pigweed” value [1, 17] was 0 and the “Plant response rating, Pigweed” value [1, 18] was 0. The “Plant response rating, Pigweed” value [1, 19] was 0, the “Plant response rating, Bluegrass” value [2, 16] was 0 and the “Plant response rating, Bluegrass” value [2, 17] was 0. For the same molecule, the “Plant response rating, Bluegrass” value [2, 18] was 0, the “Plant response rating, Bluegrass” value [2, 19] was 20 and the “Plant response rating, Canarygrass” value [3, 16] was 0. For the same molecule, the “Plant response rating, Canarygrass” value [3, 17] was 0, the “Plant response rating, Canarygrass” value [3, 18] was 75 and the “Plant response rating, Canarygrass” value [3, 19] was 90. The “Plant response rating, Wheat, Spring” value [4, 16] was 0, the “Plant response rating, Wheat, Spring” value [4, 17] was 25 and the “Plant response rating, Wheat, Spring” value [4, 18] was 60. The “Plant response rating, Wheat, Spring” value [4, 19] was 98, the “Plant response rating, Foxtail, Green” value [5, 16] was 40 and the “Plant response rating, Foxtail, Green” value [5, 17] was 75. The “Plant response rating, Foxtail, Green” value [5, 18] was 100, the “Plant response rating, Foxtail, Green” value [5, 19] was 100 and the “Plant response rating, Barley, Spring” value [6, 16] was 0. The “Plant response rating, Barley, Spring” value [6, 17] was 0, the “Plant response rating, Barley, Spring” value [6, 18] was 25 and the “Plant response rating, Barley, Spring” value [6, 19] was 75. For the same molecule, the “Plant response rating, Oat, Wild” value (wild oat (Avena fatua); [16]) was 0, the “Plant response rating, Oat, Wild” value (wild oat (Avena fatua); [17]) was 10 and the “Plant response rating, Oat, Wild” value (wild oat (Avena fatua); [18]) was 65. The “Plant response rating, Oat, Wild” value (wild oat (Avena fatua); [19]) was 70, the “Plant response rating, Blackgrass” value [7, 18] was 75 and the “Plant response rating, Blackgrass” value [7, 19] was 98. For the same molecule, the “Plant response rating, Wheat, Winter” value [8, 16] was 0, the “Plant response rating, Wheat, Winter” value [8, 17] was 20 and the “Plant response rating, Wheat, Winter” value [8, 18] was 35. For the same molecule, the “Plant response rating, Wheat, Winter” value [8, 19] was 65, the “Plant response rating, Mustard, Wild” value [9, 16] was 0 and the “Plant response rating, Mustard, Wild” value [9, 17] was 0. For the same molecule, the “Plant response rating, Mustard, Wild” value [9, 18] was 0, the “Plant response rating, Bromegrass, Downy” value [10, 16] was 0 and the “Plant response rating, Bromegrass, Downy” value [10, 17] was 20. For the same molecule, the “Plant response rating, Bromegrass, Downy” value [10, 18] was 20, the “Plant response rating, Bromegrass, Downy” value [10, 19] was 60 and the “Plant response rating, Barley, Winter” value [11, 16] was 0. For the same molecule, the “Plant response rating, Barley, Winter” value [11, 17] was 0, the “Plant response rating, Barley, Winter” value [11, 18] was 20 and the “Plant response rating, Barley, Winter” value [11, 19] was 65. The “Plant response rating, Ryegrass, Italian” value [12, 16] was 0, the “Plant response rating, Ryegrass, Italian” value [12, 17] was 20 and the “Plant response rating, Ryegrass, Italian” value [12, 19] was 75. The “Plant response rating, Windgrass” value [13, 16] was 0, the “Plant response rating, Windgrass” value [13, 17] was 0 and the “Plant response rating, Windgrass” value [13, 18] was 0. The “Plant response rating, Windgrass” value [13, 19] was 75, the “Plant response rating, Pigweed” value [14, 20] was 0 and the “Plant response rating, Pigweed” value [14, 21] was 10. The “Plant response rating, Pigweed” value [14, 22] was 0, the “Plant response rating, Wheat” value [15, 20] was 0 and the “Plant response rating, Wheat” value [15, 21] was 20. For the same molecule, the “Plant response rating, Wheat” value [15, 23] was 0 and the “Plant response rating, Wheat” value [15, 22] was 60.

With `Cc1cc(-c2ccc(Cl)cc2)nn1-c1c(OS(=O)(=O)c2ccccc2)cnn(C)c1=O` [Compound 35] the “Plant response rating, Pigweed” value [1, 16] was 0, the “Plant response rating, Pigweed” value [1, 18] was 0 and the “Plant response rating, Pigweed” value [1, 19] was 0. For the same molecule, the “Plant response rating, Bluegrass” value [2, 16] was 0, the “Plant response rating, Bluegrass” value [2, 17] was 0 and the “Plant response rating, Bluegrass” value [2, 18] was 0. For the same molecule, the “Plant response rating, Bluegrass” value [2, 19] was 0, the “Plant response rating, Canarygrass” value [3, 16] was 0 and the “Plant response rating, Canarygrass” value [3, 17] was 0. The “Plant response rating, Canarygrass” value [3, 18] was 50, the “Plant response rating, Canarygrass” value [3, 19] was 90 and the “Plant response rating, Wheat, Spring” value [4, 16] was 0. For the same molecule, the “Plant response rating, Wheat, Spring” value [4, 17] was 20, the “Plant response rating, Wheat, Spring” value [4, 18] was 50 and the “Plant response rating, Wheat, Spring” value [4, 19] was 65. The “Plant response rating, Foxtail, Green” value [5, 16] was 15, the “Plant response rating, Foxtail, Green” value [5, 18] was 40 and the “Plant response rating, Foxtail, Green” value [5, 19] was 100. For the same molecule, the “Plant response rating, Barley, Spring” value [6, 16] was 0, the “Plant response rating, Barley, Spring” value [6, 17] was 0 and the “Plant response rating, Barley, Spring” value [6, 18] was 20. For the same molecule, the “Plant response rating, Barley, Spring” value [6, 19] was 65, the “Plant response rating, Oat, Wild” value (wild oat (Avena fatua); [16]) was 0 and the “Plant response rating, Oat, Wild” value (wild oat (Avena fatua); [17]) was 0. The “Plant response rating, Oat, Wild” value (wild oat (Avena fatua); [18]) was 30, the “Plant response rating, Oat, Wild” value (wild oat (Avena fatua); [19]) was 70 and the “Plant response rating, Blackgrass” value [7, 16] was 0. For the same molecule, the “Plant response rating, Blackgrass” value [7, 17] was 30, the “Plant response rating, Blackgrass” value [7, 18] was 75 and the “Plant response rating, Blackgrass” value [7, 19] was 75. For the same molecule, the “Plant response rating, Wheat, Winter” value [8, 16] was 0, the “Plant response rating, Wheat, Winter” value [8, 17] was 10 and the “Plant response rating, Wheat, Winter” value [8, 18] was 25. The “Plant response rating, Wheat, Winter” value [8, 19] was 70, the “Plant response rating, Mustard, Wild” value [9, 18] was 0 and the “Plant response rating, Mustard, Wild” value [9, 19] was 0. For the same molecule, the “Plant response rating, Bromegrass, Downy” value [10, 16] was 0, the “Plant response rating, Bromegrass, Downy” value [10, 17] was 0 and the “Plant response rating, Bromegrass, Downy” value [10, 18] was 50. The “Plant response rating, Bromegrass, Downy” value [10, 19] was 60, the “Plant response rating, Barley, Winter” value [11, 16] was 0 and the “Plant response rating, Barley, Winter” value [11, 18] was 0. The “Plant response rating, Barley, Winter” value [11, 19] was 50, the “Plant response rating, Ryegrass, Italian” value [12, 16] was 0 and the “Plant response rating, Ryegrass, Italian” value [12, 17] was 35. The “Plant response rating, Ryegrass, Italian” value [12, 18] was 98, the “Plant response rating, Ryegrass, Italian” value [12, 19] was 100 and the “Plant response rating, Windgrass” value [13, 16] was 0. The “Plant response rating, Windgrass” value [13, 18] was 15, the “Plant response rating, Windgrass” value [13, 19] was 80 and the “Plant response rating, Pigweed” value [14, 20] was 0. The “Plant response rating, Pigweed” value [14, 21] was 0, the “Plant response rating, Pigweed” value [14, 23] was 0 and the “Plant response rating, Pigweed” value [14, 22] was 30. The “Plant response rating, Wheat” value [15, 20] was 0, the “Plant response rating, Wheat” value [15, 21] was 60 and the “Plant response rating, Wheat” value [15, 23] was 20. For the same molecule, the “Plant response rating, Wheat” value [15, 22] was 80.

— patent US20100267561A1, “HERBICIDAL PYRIDAZINONE DERIVATIVES” (priority 2007, published 2010)
